Earlier results in patent US8883207B2, “Controlled release carvedilol formulation” (TSH Biopharm Corporation Ltd., priority 2009, dated 2014).
Where two headings read alike, the source gives them in different places.

Assays:
[1] = not given; remark: listed apart in the source

relative absorption (colon): 7% | relative absorption (ileum): 28% | relative absorption (jejunum): 56% | solubility in gastric fluid ([1]; gastric fluid (simulated, TS, pH 1.1)): low solubility | solubility in intestinal fluid ([1]; intestinal fluid (simulated, TS without pancreatin, pH 7.5)): low solubility | solubility in water ([1]; water): low solubility
SMILES: COc1ccccc1OCCNCC(O)COc1cccc2[nH]c3ccccc3c12 (racemic) [carvedilol, ((±)1-(carbazol-4-yloxy-3-[[2-(o-methoxyphenoxy)ethyl]-amino]-2-propanol)]
